Experiment [1] has as its system RAW264.7. Description: Inhibition of LPS and INF-gamma-induced nitric oxide production in mouse RAW264.7 cells after 16 hrs. The conditions noted are these: for IC50: RAW264.7, 16 h.
The subject of experiment [2] is RAW264.7. Description: Inhibition of LPS-induced nitric oxide production in mouse RAW264.7 cells. Type of experiment: functional, cell-based.

The source made the active and inactive calls. No cut-off for these calls is given here.

The term IC50 denotes the concentration that inhibits the measured activity by half.

For `C/C=C(/C)C(=O)O[C@H]1C2=CC(=O)C(OC)=C(OC)[C@@]23COc2c4c(cc(c23)[C@H](OC(C)=O)[C@H](C)[C@]1(C)O)OCO4`, the result in the experiment with RAW264.7 [1] was inactive.

As for `COC1=C(OC)[C@]23COc4c5c(cc(c42)[C@H](OC(=O)c2ccccc2)[C@H](C)[C@](C)(O)[C@@H](OC(C)=O)C3=CC1=O)OCO5`, the outcome in the experiment on RAW264.7 [1] was inactive. On the same count and under the same terms, with `COc1cc2c(c(OC(=O)c3ccccc3)c1OC)-c1c(cc3c(c1OC)OCO3)[C@H](O)[C@H](C)[C@H](C)C2` the entry was “inactive”. Regarding `COc1cc([C@@H]2c3c(cc(OC)c(OC)c3O)C[C@@H](C)[C@H]2C)cc2c1OCO2` [KADSURALIGNAN H], the half-maximal inhibitory concentration (IC50) with RAW264.7 [1] was 19.6 µM. Still for that read-out and setting: with `C/C=C(\C)C(=O)Oc1c(OC)c(OC)cc2c1-c1c(cc3c(c1OC)OCO3)[C@H](O)[C@H](C)[C@H](C)C2` [KADSURALIGNAN I] the figure was 87.2 µM; with `CCC(C)C(=O)Oc1c(OC)c(OC)cc2c1-c1c(cc3c(c1OC)OCO3)[C@H](O)[C@H](C)[C@H](C)C2` (stereo partly drawn) [KADSURALIGNAN J], 33.5 µM. As for `O=c1c(O)c(-c2ccc(O)c(O)c2)oc2cc(O)cc(O)c12` [QUERCETIN], the IC50 is 26.8 µM in the experiment with RAW264.7 [2] and 25 µM in the experiment on RAW264.7 [1].
